According to paper PMC3543460, “Structure-Activity Relationships of the Antimicrobial Peptide Arasin 1 — And Mode of Action Studies of the N-Terminal, Proline-Rich Region” (PLoS ONE, 2013):
In brackets after ≈: the same amount, converted by molar mass. Peptide text beside a SMILES is read from it. * marks the point of attachment. Acm = CC(=O)NC*

Key:
E. coli ATCC 25922 = type: cell-based, Escherichia coli; conditions: ATCC 25922, 24 h
Protocol: (§1) Escherichia coli (ATCC 25922), E. coli HB101, Pseudomonas aeruginosa (ATCC 27853), Staphylococcus aureus (ATCC 9144) and Corynebacterium glutamicum (ATCC 13032) were grown at 37°C in Mueller Hinton agar (MH; Difco Laboratories, Detroit, USA). The yeasts Candida albicans (ATCC 10231) and Saccharomyces cerevisiae spp and the mold Botrytis cinerea 101 [33] were cultivated on potato dextrose agar supplemented with 2% glucose at room temperature (RT).
(§2) Determination of the MIC against bacteria was performed by continuous monitoring of bacterial growth using a Bioscreen C microbiology reader (Labsystems Oy, Helsinki, Finland). The synthetic peptides were tested for antibacterial and antifungal activity at final concentrations (prepared from serial two-fold dilutions) ranging from 0.2 µM to 100 µM. The test was performed in 100-well flat-bottomed honeycomb plates, in which 50 µl peptide solution was incubated with 50 µl of a suspension of an actively growing culture of bacteria diluted to a starting concentration of 2.5×10^5 CFU/ml in Mueller Hinton Broth (MHB). The growth chamber was maintained at 37°C during the incubation period. The absorbance was measured by a turbidometric method with vertical light photometry and a wide band filter (420–580 nm). MIC was defined as the lowest concentration resulting in no visible bacterial growth after 24 h.

P. aeruginosa ATCC 27853 = type: cell-based, Pseudomonas aeruginosa; conditions: ATCC 27853, 24 h
Protocol: as §1, §2

C. glutamicum ATCC 13032 = type: cell-based, Corynebacterium glutamicum; conditions: ATCC 13032, 24 h
Protocol: as §1, §2

S. aureus ATCC 9144 = type: cell-based, Staphylococcus aureus; conditions: ATCC 9144, 24 h
Protocol: as §1, §2

S. cerevisiae spp. = type: cell-based, Saccharomyces cerevisiae; conditions: 48 h
Protocol: as §1
(§3) Fungal spores were dissolved in potato dextrose broth (Difco, Lawrence, KS, USA) and the cell concentration was determined and adjusted after counting in a Bürker chamber. Botrytis cinerea was filtered through a piece of cotton before counting. An aliquot of 50 µl of fungal spores (final concentration 2×10^5 spores/ml) were inoculated in 96-well Nunclon™ microtitre plates (Nagle Nunc Int. Roskilde, Denmark) along with 50 µl of synthetic peptide dissolved in Milli-Q water. Cultures were grown in a dark moist chamber without shaking at 20°C for S. cerevisiae and B. cinerea, and at 37°C for C. albicans. Growth inhibition was determined microscopically after 48 h of incubation. Inhibitory concentrations (IC50) was defined as the lowest concentration tested which yielded less than 50% visible growth compared to the growth control (fungi). Each peptide was tested in parallels in three individual runs for the antimicrobial assays.

C. albicans ATCC 10231 = type: cell-based, Candida albicans; conditions: ATCC 10231, 48 h
Protocol: as §1, §3

B. cinerea 101 = type: cell-based, Botrytis cinerea; conditions: 101, 48 h
Protocol: as §1, §3

E. coli HB101 [1] = assay: Bactericidal assay (killing kinetics, colony counts); type: cell-based, Escherichia coli; conditions: 50% MHB, 1×10^6 CFU/ml, 37°C
Protocol: During incubation, aliquots were removed at different time intervals, washed in buffered high salt solution (10 mM Na-phosphate, 400 mM NaCl, 10 mM MgCl2), diluted and plated on MH plates. The number of bacterial CFU was determined after approximately 48 h of incubation at 37°C.

[2] = tested on: E. coli HB101 constitutively expressing the luxCDABE operon; assay: Cell viability assay (luxCDABE luminescence); type: cell-based, Escherichia coli; conditions: 50% MH, OD600 0.2, 30°C
Protocol: E.coli HB101 was transformed with the plasmid pCGLS-11 to enable constitutive bacterial luciferase expression from the luxCDABE operon. The resulting strain was used for cell viability assays as follows. An overnight culture in MH medium with ampicillin (100 µg/ml) was pelleted at 3000×g for 10 min and washed in MH medium before re-suspending the cells in 50% MH medium with a final OD600 of approximately 0.2. After 30 min of incubation at 30°C the cells were again adjusted to an OD600 of 0.2. An aliquot of 95 µl of bacterial solution was dispensed into each well of a black 96 well microtiter plate with transparent bottom (Falcon, Bredford, MA, USA). To achieve the indicated concentrations, a multi-channel pipette was used to add 5 µl of a two-fold dilution series of peptide solution in water to 8 wells simultaneously. The plate was loaded into a Perkin-Elmer Envision microtiter plate reader immediately after addition of the peptide (arasin 1(1–23), PR-39(1–26) or cecropin P1) and the measurement started 30 sec later because of handling events and 2 seconds of shaking inside the plate reader. Light production and growth (OD595) of the sensor bacteria was followed for 3 h under repeated shaking cycles before each measurement at 30°C.

[3] = tested on: E. coli HB101 expressing eukaryotic luciferase lucGR; assay: Membrane integrity assay I (D-luciferin influx, lucGR luciferase); type: cell-based, Escherichia coli
From the text: Escherichia coli HB101 was transformed with the plasmids pCSS962 and the helper plasmid pGB3 to allow for constitutive expression of the eukaryotic luciferase gene lucGR. The resulting strain was isogenic to the other E. coli strains used. The membrane permeabilization assay used is a modification of the protocol described by Virta et al.. The assay is based on E. coli cells, expressing a eukaryotic luciferase, depending on externally added D-luciferin as a substrate to emit light. At neutral pH the bacterial cytoplasmic membrane efficiently prevents uptake of external D-luciferin. However, disruption of the membrane by e.g. a membrane active AMP enhances D-luciferin influx and thereby induces bacterial light emission. Preparation of the cells and the assay plate was done as described for the viability assay above. However, chloramphenicol (30 µg/ml) was added in addition to ampicillin to the overnight culture, and D-luciferin sodium-salt (Biosynth, Staad, Switzerland) was added to the bacteria to final concentration of 1 mM. To allow shorter measurement intervals, only 8 wells were measured simultaneously. Arasin 1(1–23), PR-39(1–26) and cecropin P1 were tested for their membrane disruptive capacity.

E. coli HB101 [4] = assay: Membrane integrity assay II (propidium iodide, flow cytometry); type: cell-based, Escherichia coli; conditions: 50% MH, 37°C, four independent experiments
Protocol: The effect of arasin 1(1–23) and cecropin P1 on membrane permeabilization was also studied by measuring the percentage of propidium iodide (PI) positive cells by flow cytometry. Samples of 1×10^6 cells/ml of E. coli HB101 were incubated in 50% MH with peptides at 37°C for different time span. After incubation, PI (Sigma Aldrich, Saint Louis, MO, USA) was added to the peptide-treated bacteria at a final concentration of 10 µg/ml. The cells were analyzed after 4 min of incubation with PI at 37°C in the flow cytometer as described.

Chitin-binding assay = conditions: 50 µg peptide with 40 mg chitin, washes with 0.1 M NaCl, 1 M NaCl, 10% acetic acid at 95°C; RP-HPLC of supernatants
Protocol: The ability of arasin 1(1–23) and arasin 1(20–37)-Acm to bind chitin was estimated using a modified protocol from Kawabata et al.. Briefly, 50 µg of peptide was incubated with 40 mg chitin in 800 µl buffer (50 mM Tris-HCl, 0.1 M NaCl, pH 8.0). Sequentially chitin was incubated at RT with 800 µl buffer containing 0.1 M NaCl and 1 M NaCl, respectively, and finally at 95°C with 10% acetic acid. All incubations were performed for 10 min, and chitin was collected by centrifugation at 1000×g for 5 min between each step. Supernatants were subjected to RP-HPLC using a Sunfire™ Prep C18 column (Waters; 100 Å 5 µm; 10×250 mm, MA, USA), with a linear gradient from 8 to 60% acetonitrile and a flow of 3 ml/min over 60 min. Absorbance was monitored at 220 nm and the resulting chromatograms were compared.

E. coli = assay: Antimicrobial activity at varied MH concentration; type: cell-based, Escherichia coli; conditions: results not shown
From the text: In contrast to the results from E. coli and P. aeruginosa, the C-terminal part of arasin 1(1–23) alone arasin 1(7–23) and 1(9–23) inhibits C. glutamicum and all the fungi. At the same time this antibacterial and antifungal activity is strictly dependent on a fragment between aa 13–23. This indicates a somewhat different mode of action for Gram- negative and Gram-positive bacteria, respectively. Likewise the mode of action against fungi is likely different. It is tempting to speculate that the N-terminal 5–10 amino acids might be involved in arasin 1(1–23) transfer across the outer membrane while the C-terminal part might bind the molecular target which is responsible for growth inhibition at low concentrations. The antimicrobial assays were all performed in MH or potato dextrose medium at a final concentration of 50% strength for bacteria and fungi, respectively. […] This means that the peptides are very sensitive to medium composition, and perhaps also salinity and/or ionic strength. […] In some studies, the use of diluted or poor medium instead of rich medium in MIC and mode of action studies is claimed to increase the sensitivity of the assays, [47]. The reasons of the medium-dependence have not been further evaluated, and 50% MH was used as the standard medium for the mode of action studies.

Molecule	MIC E. coli ATCC 25922 (E. coli ATCC 25922)	MIC P. aeruginosa ATCC 27853 (P. aeruginosa ATCC 27853)	MIC C. glutamicum ATCC 13032 (C. glutamicum ATCC 13032)	MIC S. aureus ATCC 9144 (S. aureus ATCC 9144)	IC50 (S. cerevisiae spp.)	IC50 (C. albicans ATCC 10231)	IC50 (B. cinerea 101)	effect on viable cell count at MIC (E. coli HB101 [1]; 4 µM (MIC), up to 4 h)	reduction of viable E. coli cells (E. coli HB101 [1]; 20 µM (5×MIC), after 30 min)	luminescence compared to untreated bacteria ([2]; after 10 min, at 10-fold MIC)	luminescence compared to untreated bacteria ([2]; at MIC values (5 µM))	light emission (D-luciferin influx) at concentrations above MIC ([3]; 1 mM D-luciferin)	light emission (D-luciferin influx) at concentration around MIC ([3]; compared with cecropin P1 treatment, 1 mM D-luciferin)	time at which permeabilization peaked ([3]; high concentrations of peptide)	PI-positive (permeabilized) cells (E. coli HB101 [4]; peptide at 5×MIC (20 µM), 1×10^6 cells/ml)	PI-positive (permeabilized) cells (E. coli HB101 [4]; peptide at 10×MIC (40 µM), after 15 min of treatment)	PI-positive (permeabilized) cells (E. coli HB101 [4]; peptide at MIC (4 µM), 1×10^6 cells/ml, background subtracted)	binding to chitin (Chitin-binding assay)	change of antimicrobial activity against E. coli by varying the MH concentration (E. coli)
CC[C@H](C)[C@H](NC(=O)[C@@H]1CCCN1C(=O)[C@H](CCCCN)NC(=O)[C@@H]1CCCN1C(=O)[C@H](CCCNC(=N)N)NC(=O)CNC(=O)[C@@H]1CCCN1C(=O)[C@H](Cc1ccccc1)NC(=O)[C@@H]1CCCN1C(=O)[C@H](CCCNC(=N)N)NC(=O)[C@@H]1CCCN1C(=O)[C@H](CCCNC(=N)N)NC(=O)CNC(=O)[C@@H]1CCCN1C(=O)[C@H](CO)NC(=O)[C@@H]1CCCN1C(=O)[C@H](Cc1c[nH]c2ccccc12)NC(=O)[C@H](CCCNC(=N)N)NC(=O)[C@@H](N)CO)C(=O)N[C@@H](Cc1ccccc1)C(=O)N[C@@H](CCCNC(=N)N)C(=O)N1CCC[C@H]1C(=O)N[C@@H](CCCNC(=N)N)C(=O)O [Arasin 1(1–23)] (H-SRWPSPGRPRPFPGRPKPIFRPR-OH; N-terminus and C-terminus assumed)	6.3 µM (≈ 17.3 µg/mL)	12.5 µM (≈ 34.3 µg/mL)	0.8 µM (≈ 2.19 µg/mL)	>100 µM	12.5 µM	12.5 µM	12.5 µM	inhibition of bacterial growth without decreasing the number of viable cells	1 log	more than 60%	more than 80%	doubling of light emission	Minimal amounts of light	approximately 10 min	30%	approximately 75%	~10%	strong binding of the peptide to chitin	–
CC(=O)NCSC[C@H](NC(=O)[C@H](CC(N)=O)NC(=O)[C@H](CSCNC(C)=O)NC(=O)[C@@H]1CCCN1C(=O)[C@H](CCCNC(=N)N)NC(=O)[C@@H]1CCCN1C(=O)[C@H](CCCNC(=N)N)NC(=O)[C@@H](N)Cc1ccccc1)C(=O)N[C@@H](Cc1ccc(O)cc1)C(=O)N[C@@H](C)C(=O)N1CCC[C@H]1C(=O)N1CCC[C@H]1C(=O)N[C@@H](CSCNC(C)=O)C(=O)N1CCC[C@H]1C(=O)N[C@@H](CSCNC(C)=O)C(=O)N[C@@H](CC(=O)O)C(=O)N[C@@H](CCCNC(=N)N)C(=O)N[C@@H](Cc1c[nH]c2ccccc12)C(=O)O [Arasin 1(20–37)-Acm] (H-FRPRPC(Acm)NC(Acm)YAPPC(Acm)PC(Acm)DRW-OH; N-terminus and C-terminus assumed)	>100 µM	>100 µM	>100 µM	>100 µM	> 100 µM	> 100 µM	> 100 µM	–	–	–	–	–	–	–	–	–	–	did not bind tightly to chitin	–
Bac7(1–16): fragment of the mammalian proline-rich antimicrobial peptide Bac7 (RRIRPRPPRLPRPRPR; Bactenecin 7; UniProt P19661 131-146, looked up, fragment)	–	–	–	–	–	–	–	–	–	–	–	–	–	–	–	–	–	–	did not change the antimicrobial activity
